The values that follow come from patent publication US20240342176A1, “PHARMACEUTICAL COMBINATION AND APPLICATION THEREOF” (GUANGZHOU JOYO PHARMATECH CO., LTD, priority 2021, published 2024).

The test system of one test is human Treg cells. The test can be described thus: In vitro pharmacodynamic experiment on human Treg cells (flow cytometry CD4, CD25, Foxp3). The test is classed as cell-based. The note with it: for IC50: Homo sapiens, 120 h, five days of compound incubation, CD4, CD25, Foxp3 positive counts vs DMSO control, read-out: IC50, inhibitory activity on human Treg cells. The protocol:
• 1. Research purpose: The in vitro pharmacodynamic experiment of compound I on human Treg cells. • 2. […] Experimental methods: • 1) A 96-well cell culture plate was coated with 10 μg/mL anti-human CD3, 50 μL per well, incubated at 37° C. for three hours, and then rinsed with X-VIVO medium. • 2) Human peripheral blood mononuclear cells (purchased from Hemacare) were resuscitated and stained with CellTrace Violet (CTV). • 3) After staining, Human Naive CD4+ T cells were isolated using the Human naïve CD4 isolation kit. • 4) IL-2 (10 ng/ml), CD28 (2 μg/mL), and TGF-b (1 ng/mL) were added to the cell culture medium, and different concentrations of the test compounds were added at the same time. • 5) After five days of compound incubation, CD4, CD25, and Foxp3 were detected by flow cytometry. The positive counts of CD4, CD25, and Foxp3 were calculated, and the relative survival rate and IC50 were calculated compared with the DMSO control group. • 4. Experimental results: • The experiment used the flow cytometry method to determine the in vitro pharmacodynamic experiment of the test compound I on human Treg cells. The detection results are shown in A and B of FIG. 5 and Table 3.

The next test concerns the target PI3Kγ (Homo sapiens (Human), UniProt P48736). Briefly: ADP-Glo chemiluminescence enzymatic activity assay, PI3Kγ. The test is classed as biochemical. The following applies: mean ± SD, N = 3, ATP 25 μM. The protocol: (§1) • 1. Research purpose: The inhibitory effect of compound I on the enzymatic activity of PI3Kδ and PI3Kγ in vitro. • 2. Experimental materials: • (1) Main instrument: Envision (PerkinElmer-2104) • (2) Main reagents: ADP-Glo kinase kit (purchased from Promega), PI3Kδ (P1108/P85a) (purchased from Millipore), and PI3Kγ (P120γ) (purchased from Millipore). • 3. Experimental methods: • 1) Preparation of buffer salt solution: A 10× buffer salt solution with a pH of 7.5 containing 500 mM HEPES, 500 mM NaCl, and 30 mM MgCl2 was prepared with ultrapure water and stored at 4° C. for later use. Before use, the above buffer salt solution was diluted to a 3.33× buffer salt solution and BSA was added to a final concentration of 0.333 mg/mL. • 2) A 100× reference compound (compound I) was prepared with a starting concentration of 100 nM, diluted in a 3-fold serial dilution to 10 concentrations and transferred to the corresponding 384 microwell plate at 50 nL/well. In the control group, 50 nL/well of DMSO was added. • 3) 3.33×PI3K solutions were prepared with the 3.33× buffer salt solution, PI3Kδ at a final concentration of 0.25 nM, PI3Kγ at a final concentration of 0.4 nM. A 3.33×PIP2:3PS solution was prepared, mixed with the enzyme solutions at a volume ratio of 1:1, and added to the 384 microwell plate in 3 μL/well. […] The luminescence value was read using Envision. • 4. […]
On the technique in general: In ADP-Glo the light output rises with the ADP produced.

The target in a further test is PI3Kδ (Homo sapiens (Human), UniProt O00329). Briefly: ADP-Glo chemiluminescence enzymatic activity assay, PI3Kδ. The test is classed as biochemical. The note with it: mean ± SD, N = 3, ATP 40 μM. The protocol: as §1
Chain of PI3Kδ (O00329 whole entry, looked up): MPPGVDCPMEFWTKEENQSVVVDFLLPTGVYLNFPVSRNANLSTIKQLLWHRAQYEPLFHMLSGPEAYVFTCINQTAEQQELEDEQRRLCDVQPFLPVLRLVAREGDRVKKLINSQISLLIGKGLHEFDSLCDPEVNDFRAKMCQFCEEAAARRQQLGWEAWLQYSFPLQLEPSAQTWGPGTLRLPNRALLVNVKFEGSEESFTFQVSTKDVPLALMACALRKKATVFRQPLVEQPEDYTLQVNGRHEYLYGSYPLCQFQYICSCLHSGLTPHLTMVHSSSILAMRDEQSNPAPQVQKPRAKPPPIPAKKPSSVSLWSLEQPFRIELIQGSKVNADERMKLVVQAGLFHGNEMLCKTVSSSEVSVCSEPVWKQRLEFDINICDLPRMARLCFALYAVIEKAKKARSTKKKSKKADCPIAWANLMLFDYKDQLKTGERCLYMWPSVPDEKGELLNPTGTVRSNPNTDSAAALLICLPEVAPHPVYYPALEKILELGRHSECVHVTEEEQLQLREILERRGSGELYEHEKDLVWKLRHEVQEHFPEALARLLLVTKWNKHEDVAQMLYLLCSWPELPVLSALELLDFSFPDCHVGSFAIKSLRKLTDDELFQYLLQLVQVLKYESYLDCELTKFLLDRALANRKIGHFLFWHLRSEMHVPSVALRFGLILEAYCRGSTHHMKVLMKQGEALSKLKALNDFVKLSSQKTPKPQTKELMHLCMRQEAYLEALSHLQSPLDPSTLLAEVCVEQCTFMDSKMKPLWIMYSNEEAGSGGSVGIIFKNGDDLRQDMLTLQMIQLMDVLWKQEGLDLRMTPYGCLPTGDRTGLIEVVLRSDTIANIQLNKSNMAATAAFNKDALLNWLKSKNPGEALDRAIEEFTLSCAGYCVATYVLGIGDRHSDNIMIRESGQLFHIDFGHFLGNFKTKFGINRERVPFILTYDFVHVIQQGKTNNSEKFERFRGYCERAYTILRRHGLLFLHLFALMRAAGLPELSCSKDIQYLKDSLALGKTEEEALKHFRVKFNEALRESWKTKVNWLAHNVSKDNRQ
Chain of PI3Kδ (P27986 whole entry partner, looked up): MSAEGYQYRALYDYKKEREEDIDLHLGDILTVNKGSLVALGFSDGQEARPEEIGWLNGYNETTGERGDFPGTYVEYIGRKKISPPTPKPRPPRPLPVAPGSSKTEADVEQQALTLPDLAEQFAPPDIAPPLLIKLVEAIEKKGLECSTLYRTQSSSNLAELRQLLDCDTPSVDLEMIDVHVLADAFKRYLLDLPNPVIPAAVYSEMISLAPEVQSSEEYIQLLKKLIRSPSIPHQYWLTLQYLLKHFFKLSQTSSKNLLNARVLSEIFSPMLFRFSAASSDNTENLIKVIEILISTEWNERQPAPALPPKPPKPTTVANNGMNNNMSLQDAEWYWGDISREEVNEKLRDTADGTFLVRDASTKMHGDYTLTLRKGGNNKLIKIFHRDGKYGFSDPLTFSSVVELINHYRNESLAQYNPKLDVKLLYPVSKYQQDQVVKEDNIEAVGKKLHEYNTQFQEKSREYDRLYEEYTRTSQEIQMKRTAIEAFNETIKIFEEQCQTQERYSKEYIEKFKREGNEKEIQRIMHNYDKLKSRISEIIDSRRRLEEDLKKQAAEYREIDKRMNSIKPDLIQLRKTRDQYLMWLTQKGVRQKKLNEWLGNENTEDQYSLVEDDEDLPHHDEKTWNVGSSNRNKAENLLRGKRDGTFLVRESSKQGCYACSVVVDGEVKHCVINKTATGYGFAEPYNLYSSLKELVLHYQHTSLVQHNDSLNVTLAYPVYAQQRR

Chain of PI3Kγ (P48736 whole entry): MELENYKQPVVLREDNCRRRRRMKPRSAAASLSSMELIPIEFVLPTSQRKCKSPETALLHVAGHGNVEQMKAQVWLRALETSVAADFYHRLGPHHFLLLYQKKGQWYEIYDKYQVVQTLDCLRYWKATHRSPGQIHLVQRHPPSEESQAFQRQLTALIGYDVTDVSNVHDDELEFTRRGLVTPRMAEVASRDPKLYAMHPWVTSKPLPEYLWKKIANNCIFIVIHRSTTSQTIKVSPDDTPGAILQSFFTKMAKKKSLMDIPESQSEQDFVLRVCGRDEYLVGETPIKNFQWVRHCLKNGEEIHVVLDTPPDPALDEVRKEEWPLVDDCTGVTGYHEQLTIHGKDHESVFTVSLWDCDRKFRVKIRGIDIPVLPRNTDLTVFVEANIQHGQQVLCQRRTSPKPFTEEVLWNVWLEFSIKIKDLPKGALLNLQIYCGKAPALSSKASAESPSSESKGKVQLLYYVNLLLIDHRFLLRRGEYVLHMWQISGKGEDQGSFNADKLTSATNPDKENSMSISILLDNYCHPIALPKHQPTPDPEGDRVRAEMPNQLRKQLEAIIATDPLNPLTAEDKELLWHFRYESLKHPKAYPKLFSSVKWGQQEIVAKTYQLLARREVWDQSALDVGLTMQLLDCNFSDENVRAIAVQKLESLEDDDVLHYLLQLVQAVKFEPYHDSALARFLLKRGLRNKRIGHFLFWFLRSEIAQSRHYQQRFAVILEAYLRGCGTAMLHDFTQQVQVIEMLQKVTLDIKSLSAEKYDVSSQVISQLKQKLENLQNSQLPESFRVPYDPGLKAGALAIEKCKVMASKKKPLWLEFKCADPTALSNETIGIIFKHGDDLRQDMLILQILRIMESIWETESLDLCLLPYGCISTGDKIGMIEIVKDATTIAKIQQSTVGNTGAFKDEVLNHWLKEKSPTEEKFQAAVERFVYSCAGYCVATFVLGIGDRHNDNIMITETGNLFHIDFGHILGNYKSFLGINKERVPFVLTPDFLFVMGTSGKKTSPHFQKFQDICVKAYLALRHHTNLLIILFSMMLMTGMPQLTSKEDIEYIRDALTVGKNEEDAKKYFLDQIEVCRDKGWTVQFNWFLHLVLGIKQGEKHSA

The term IC50 denotes the point on the concentration scale where inhibition reaches its midpoint. For the molecule `COCCOc1cnc2ccc(-c3cnc(OC)c(NS(=O)(=O)c4sc(C)nc4C)c3)cn2c1=O` [Compound I], the concentration for half-maximal inhibition (IC50) with human Treg cells turned out to be 0.01 nM; against PI3Kγ, 0.29 ± 0.02 nM; against PI3Kδ, 0.18 ± 0.01 nM. The “inhibitory activity on human Treg cells relative to Idelalisib” value in the test with human Treg cells (ratio of IC50 values) came to 3172 times.

Turning to `CC[C@H](Nc1ncnc2[nH]cnc12)c1nc2cccc(F)c2c(=O)n1-c1ccccc1` [Idelalisib, reference compound], in the test on human Treg cells, the IC50 stood at 31.7 nM.
